What was measured:
[1] = tested on: dopamine release from striatal synaptosomes; assay: In vitro [3H]dopamine release from crude striatal synaptosomes; format: biochemical, rat; conditions: for EC50: striatal synaptosomes
Procedure: In brief, male Sprague Dawley rats (200–225 g) were terminated by cervical dislocation followed by decapitation. The striatums or hippocampi were dissected and homogenized in ice-cold 0.32 M sucrose using a Dounce homogenizer. The homogenates were centrifuged at 100 x g for 5 min to pellet cell debris. The supernatants were collected and centrifuged at 17,000 x g for 10 min at 4°C to pellet crude synaptosomes.
The [^3H]norepinephrine- or [^3H]dopamine-treated crude synaptosomes were loaded onto closed filter chambers containing Whatman® Grade GF/C Glass Microfiber filters (Sigma-Aldrich, Merck KGaA, Darmstadt, Germany) and placed in a superfusion system. […] To ensure an even flow over the synaptosomal bed, trapped air bubbles were removed from the filters prior to collection of the fractions. After a superfusion period of 40 min, three basal fractions (1.5 ml/fraction) were collected first, followed by three fractions (1.5 ml/fraction) containing the test compound. Two additional fractions were collected in the presence of 30 mM KCl to depolarize the synaptosomes. […] Once all fractions were collected, the filters holding the crude synaptosome samples were removed and dried overnight at room temperature. On the following day, the scintillation cocktail was added and the filters were counted to determine residual radioactivity.
Compound-evoked release of neurotransmitters was calculated by subtracting the counts per minute (CPM) in the two basal fractions collected immediately prior to compound addition from those in the two fractions collected immediately following compound addition. The compound-evoked release was then expressed as a percentage of the basal release from that chamber. Potassium-evoked release was calculated by subtracting the CPM in the fraction immediately prior to KCl addition from the CPM in the […] immediately following potassium addition. Stimulated release was calculated as the percentage of basal release for that chamber. The increase in stimulated release above the baseline (no compound) release for that experimental run was determined, and the latter values were plotted on the graphs. Dose–response curves were determined using non-linear curve fitting in Prism (GraphPad Software, Inc, San Diego, CA, United States). All experiments were repeated at least three times.

C57Bl/6 mice = assay: Tolerability test (body weight, body temperature, passive signs, manipulation responses); conditions: for BT (°C) naïve / Manipulations naïve / Passive naïve: baseline; for BW Day 1 / BW Day 2: mean ± SD
Procedure: In brief, mice were single-housed prior to the test and evaluated for baseline body weight, body temperature, and other parameters. […] On day 1, the mice were i. p. injected with saline (vehicle) or a test compound at 10 ml/kg body weight. Then, body temperature was measured at 15 min, 4 h, and 24 h and body weight on days 1 and 2. Neurological and motor parameters were evaluated at 15 min, 2 h, and 4 h after administration. The list of parameters is provided in Supplementary Figure S1 in Supplementary Material S1.
In addition, within 5 min after the 15-min observation period, mice were placed in open-field chambers for 30 min to determine their general motor activity (distance traveled), ambulatory time, and number of rears. The open-field chambers were made of Plexiglas (27.3 × 27.3 × 20.3 cm; Med Associates Inc, St Albans, VT, United States) surrounded by infrared photobeam sources (16 × 16 × 16 beams). Horizontal activity (distance and time traveled) and vertical activity (number and frequency of rears) were measured by consecutive beam breaks. At the end of each open-field test session, the chambers were thoroughly cleaned with NOLVASAN® solution (Zoetis Services LLC, Parsippany, NJ, United States). Four mice were used per treatment condition. Mice were terminated after completion of the last tolerability observation.
All compounds were diluted in saline, and the pH was adjusted to approximately 7.0 with HCl or NaOH on the day of the experiment. […] The doses were calculated based on the free base molecular weight of the compounds.
For the tolerability tests, passive signs and manipulation responses were analyzed for effects of the treatment by the Kruskal–Wallis test. Body temperature and body weight data were analyzed by two-way repeated measures analysis of variance (ANOVA). The total distance and time traveled and number and frequency of rears in the open-field activity test were analyzed by one-way ANOVA, followed by the Tukey post-hoc test. For the analyses of the zebrafish NTT data, one-way ANOVA was used, followed by Dunnett’s multiple comparison test, if it passed the Shapiro-Wilk normality test. […] An effect was considered significant if p < 0.05. The half maximal effective concentration (EC50) and half-maximal inhibitory concentration (IC50) for the receptor pharmacology and neurotransmitter release assay were determined by using nonlinear regression analysis. Statistical analyses were conducted using GraphPad Prism.

α3β4 nAChR = α3β4 nAChR (Homo sapiens, UniProt P30926+P32297); assay: Radioligand displacement binding assay
Procedure: All binding and functional assays for molecular target characterization were conducted by Eurofins Cerep SA (Celle-Lévescault, France) and Eurofins Panlabs Discovery Services Taiwan, Ltd. (New Taipei City, Taiwan) using their standard in vitro binding and functional assays (Supplementary Material S2). […] Negative values were considered to be an artifact arising from, for example, compounds interfering with the assay readout.
The radioligand displacement binding assays employed the gold standard filtration method using membrane preparations from stable cell lines (HEK-293 or CHO cells) expressing human or rodent target proteins to determine the interaction of the compounds with specific receptors, channels, and transporters. For this purpose, the competitive binding of test compounds against a [^125I]- [^3H]-, or [^35S]-labelled agonist and/or antagonist was determined. The specific list of radiolabeled ligands and experimental conditions are summarized in Supplementary Material S2.

Sequence of α3β4 nAChR (P32297 32-505): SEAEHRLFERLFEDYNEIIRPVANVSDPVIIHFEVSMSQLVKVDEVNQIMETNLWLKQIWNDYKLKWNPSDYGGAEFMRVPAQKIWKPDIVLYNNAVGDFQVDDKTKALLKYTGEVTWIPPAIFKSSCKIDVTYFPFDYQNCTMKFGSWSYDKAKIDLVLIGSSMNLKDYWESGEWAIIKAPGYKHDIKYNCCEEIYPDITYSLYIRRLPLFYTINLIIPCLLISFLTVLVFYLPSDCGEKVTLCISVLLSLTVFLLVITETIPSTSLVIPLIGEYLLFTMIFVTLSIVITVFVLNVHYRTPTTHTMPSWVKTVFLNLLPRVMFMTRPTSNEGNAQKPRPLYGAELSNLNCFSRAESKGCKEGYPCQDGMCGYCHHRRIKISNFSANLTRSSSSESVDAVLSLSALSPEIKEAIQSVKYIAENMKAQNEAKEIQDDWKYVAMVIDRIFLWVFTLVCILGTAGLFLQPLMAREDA
Sequence of α3β4 nAChR (P30926 22-498): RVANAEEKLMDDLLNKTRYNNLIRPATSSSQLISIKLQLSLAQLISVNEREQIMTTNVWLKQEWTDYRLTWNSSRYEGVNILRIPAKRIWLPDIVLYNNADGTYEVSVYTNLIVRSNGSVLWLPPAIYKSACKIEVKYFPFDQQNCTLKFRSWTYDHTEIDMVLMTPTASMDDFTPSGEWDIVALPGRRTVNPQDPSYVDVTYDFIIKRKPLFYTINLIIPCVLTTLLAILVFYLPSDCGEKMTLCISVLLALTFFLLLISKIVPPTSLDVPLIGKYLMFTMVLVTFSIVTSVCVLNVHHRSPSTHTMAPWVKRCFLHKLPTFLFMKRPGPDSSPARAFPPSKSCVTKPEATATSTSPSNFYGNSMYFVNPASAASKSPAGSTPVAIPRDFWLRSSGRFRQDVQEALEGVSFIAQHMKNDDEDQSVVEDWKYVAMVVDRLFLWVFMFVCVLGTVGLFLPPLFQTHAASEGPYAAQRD

CN1CCC[C@H]1c1cccnc1 [Nicotine, (-)-Nicotine]
EC50 [1]: 190 nM | BT (°C) naïve (C57Bl/6 mice; 0.25 mg/kg group): 37.83 ± 0.15 °C | Manipulations naïve (C57Bl/6 mice; 0.25 mg/kg group): 0.00 ± 0.00 | Passive naïve (C57Bl/6 mice; 0.25 mg/kg group): 0.00 ± 0.00 | BT (°C) 15min (C57Bl/6 mice; 0.25 mg/kg i.p.): 37.48 ± 0.98 °C | BT (°C) 4hr (C57Bl/6 mice; 0.25 mg/kg i.p.): 36.88 ± 0.97 °C | BT (°C) 24hr (C57Bl/6 mice; 0.25 mg/kg i.p.): 36.43 ± 0.87 °C | Manipulations 15min (C57Bl/6 mice; 0.25 mg/kg i.p.): 0.00 ± 0.00 | Manipulations 2hr (C57Bl/6 mice; 0.25 mg/kg i.p.): 0.00 ± 0.00 | Manipulations 4hr (C57Bl/6 mice; 0.25 mg/kg i.p.): 0.00 ± 0.00 | Passive 15min (C57Bl/6 mice; 0.25 mg/kg i.p.): 0.00 ± 0.00 | Passive 2hr (C57Bl/6 mice; 0.25 mg/kg i.p.): 0.00 ± 0.00 | Passive 4hr (C57Bl/6 mice; 0.25 mg/kg i.p.): 0.00 ± 0.00 | BW Day 1 (C57Bl/6 mice; 0.25 mg/kg i.p.): 24.54 ± 0.97 | BW Day 2 (C57Bl/6 mice; 0.25 mg/kg i.p.): 24.33 ± 0.99 | BT (°C) naïve (C57Bl/6 mice; 0.5 mg/kg group): 37.93 ± 0.17 °C | Manipulations naïve (C57Bl/6 mice; 0.5 mg/kg group): 0.00 ± 0.00 | Passive naïve (C57Bl/6 mice; 0.5 mg/kg group): 0.00 ± 0.00 | BT (°C) 15min (C57Bl/6 mice; 0.5 mg/kg i.p.): 36.48 ± 0.90 °C | BT (°C) 4hr (C57Bl/6 mice; 0.5 mg/kg i.p.): 36.50 ± 0.44 °C | BT (°C) 24hr (C57Bl/6 mice; 0.5 mg/kg i.p.): 36.65 ± 0.41 °C | Manipulations 15min (C57Bl/6 mice; 0.5 mg/kg i.p.): 0.00 ± 0.00 | Manipulations 2hr (C57Bl/6 mice; 0.5 mg/kg i.p.): 0.00 ± 0.00 | Manipulations 4hr (C57Bl/6 mice; 0.5 mg/kg i.p.): 0.00 ± 0.00 | Passive 15min (C57Bl/6 mice; 0.5 mg/kg i.p.): 0.00 ± 0.00 | Passive 2hr (C57Bl/6 mice; 0.5 mg/kg i.p.): 0.00 ± 0.00 | Passive 4hr (C57Bl/6 mice; 0.5 mg/kg i.p.): 0.00 ± 0.00 | BW Day 1 (C57Bl/6 mice; 0.5 mg/kg i.p.): 24.58 ± 0.93 | BW Day 2 (C57Bl/6 mice; 0.5 mg/kg i.p.): 24.76 ± 1.20 | BT (°C) naïve (C57Bl/6 mice; 1 mg/kg group): 37.90 ± 0.16 °C | Manipulations naïve (C57Bl/6 mice; 1 mg/kg group): 0.00 ± 0.00 | Passive naïve (C57Bl/6 mice; 1 mg/kg group): 0.00 ± 0.00 | BT (°C) 15min (C57Bl/6 mice; 1 mg/kg i.p.): 33.53 ± 0.85 °C | BT (°C) 4hr (C57Bl/6 mice; 1 mg/kg i.p.): 36.55 ± 0.48 °C | BT (°C) 24hr (C57Bl/6 mice; 1 mg/kg i.p.): 36.53 ± 0.31 °C | Manipulations 15min (C57Bl/6 mice; 1 mg/kg i.p.): 0.00 ± 0.00 | Manipulations 2hr (C57Bl/6 mice; 1 mg/kg i.p.): 0.00 ± 0.00 | Manipulations 4hr (C57Bl/6 mice; 1 mg/kg i.p.): 0.00 ± 0.00 | Passive 15min (C57Bl/6 mice; 1 mg/kg i.p.): 0.00 ± 0.00 | Passive 2hr (C57Bl/6 mice; 1 mg/kg i.p.): 0.00 ± 0.00 | Passive 4hr (C57Bl/6 mice; 1 mg/kg i.p.): 0.00 ± 0.00 | body temperature 15 min after the injection (C57Bl/6 mice; 1 mg/kg i.p.): decreased the body temperature | BW Day 1 (C57Bl/6 mice; 1 mg/kg i.p.): 24.55 ± 0.94 | BW Day 2 (C57Bl/6 mice; 1 mg/kg i.p.): 24.10 ± 0.61

C1=CCC(c2cccnc2)NC1 (racemic) [Anatabine, (±)-Anatabine]
IC50 (α3β4 nAChR): 960 ± 200 nM | EC50 [1]: 1760 nM | BT (°C) naïve (C57Bl/6 mice; 1 mg/kg group): 37.95 ± 0.13 °C | Manipulations naïve (C57Bl/6 mice; 1 mg/kg group): 0.00 ± 0.00 | Passive naïve (C57Bl/6 mice; 1 mg/kg group): 0.00 ± 0.00 | BT (°C) 15min (C57Bl/6 mice; 1 mg/kg i.p.): 36.98 ± 0.41 °C | BT (°C) 4hr (C57Bl/6 mice; 1 mg/kg i.p.): 36.65 ± 0.33 °C | BT (°C) 24hr (C57Bl/6 mice; 1 mg/kg i.p.): 36.88 ± 0.43 °C | Manipulations 15min (C57Bl/6 mice; 1 mg/kg i.p.): 0.00 ± 0.00 | Manipulations 2hr (C57Bl/6 mice; 1 mg/kg i.p.): 0.00 ± 0.00 | Manipulations 4hr (C57Bl/6 mice; 1 mg/kg i.p.): 0.00 ± 0.00 | Passive 15min (C57Bl/6 mice; 1 mg/kg i.p.): 0.00 ± 0.00 | Passive 2hr (C57Bl/6 mice; 1 mg/kg i.p.): 0.00 ± 0.00 | Passive 4hr (C57Bl/6 mice; 1 mg/kg i.p.): 0.00 ± 0.00 | BW Day 1 (C57Bl/6 mice; 1 mg/kg i.p.): 24.46 ± 2.30 | BW Day 2 (C57Bl/6 mice; 1 mg/kg i.p.): 24.64 ± 2.56 | BT (°C) naïve (C57Bl/6 mice; 2 mg/kg group): 37.83 ± 0.15 °C | Manipulations naïve (C57Bl/6 mice; 2 mg/kg group): 0.00 ± 0.00 | Passive naïve (C57Bl/6 mice; 2 mg/kg group): 0.00 ± 0.00 | BT (°C) 15min (C57Bl/6 mice; 2 mg/kg i.p.): 35.28 ± 0.49 °C | BT (°C) 4hr (C57Bl/6 mice; 2 mg/kg i.p.): 36.48 ± 0.49 °C | BT (°C) 24hr (C57Bl/6 mice; 2 mg/kg i.p.): 36.45 ± 0.30 °C | Manipulations 15min (C57Bl/6 mice; 2 mg/kg i.p.): 0.00 ± 0.00 | Manipulations 2hr (C57Bl/6 mice; 2 mg/kg i.p.): 0.00 ± 0.00 | Manipulations 4hr (C57Bl/6 mice; 2 mg/kg i.p.): 0.00 ± 0.00 | Passive 15min (C57Bl/6 mice; 2 mg/kg i.p.): 0.00 ± 0.00 | Passive 2hr (C57Bl/6 mice; 2 mg/kg i.p.): 0.00 ± 0.00 | Passive 4hr (C57Bl/6 mice; 2 mg/kg i.p.): 0.00 ± 0.00 | BW Day 1 (C57Bl/6 mice; 2 mg/kg i.p.): 24.64 ± 1.69 | BW Day 2 (C57Bl/6 mice; 2 mg/kg i.p.): 24.89 ± 2.21 | BT (°C) naïve (C57Bl/6 mice; 4 mg/kg group): 38.08 ± 0.05 °C | Manipulations naïve (C57Bl/6 mice; 4 mg/kg group): 0.00 ± 0.00 | Passive naïve (C57Bl/6 mice; 4 mg/kg group): 0.00 ± 0.00 | BT (°C) 15min (C57Bl/6 mice; 4 mg/kg i.p.): 33.92 ± 0.30 °C | BT (°C) 4hr (C57Bl/6 mice; 4 mg/kg i.p.): 36.30 ± 0.40 °C | BT (°C) 24hr (C57Bl/6 mice; 4 mg/kg i.p.): 36.63 ± 0.17 °C | Manipulations 15min (C57Bl/6 mice; 4 mg/kg i.p.): 0.00 ± 0.00 | Manipulations 2hr (C57Bl/6 mice; 4 mg/kg i.p.): 0.00 ± 0.00 | Manipulations 4hr (C57Bl/6 mice; 4 mg/kg i.p.): 0.00 ± 0.00 | Passive 15min (C57Bl/6 mice; 4 mg/kg i.p.): 0.00 ± 0.00 | Passive 2hr (C57Bl/6 mice; 4 mg/kg i.p.): 0.00 ± 0.00 | Passive 4hr (C57Bl/6 mice; 4 mg/kg i.p.): 0.00 ± 0.00 | body temperature 15 min after the injection (C57Bl/6 mice; 4 mg/kg i.p.): decreased the body temperature | BW Day 1 (C57Bl/6 mice; 4 mg/kg i.p.): 24.73 ± 1.23 | BW Day 2 (C57Bl/6 mice; 4 mg/kg i.p.): 24.43 ± 1.13

CN1C(=O)CC[C@H]1c1cccnc1 [Cotinine, (-)-cotinine]
binding for α3β4 nAChR (α3β4 nAChR): undetectable | dopamine release ([1]; at higher concentrations): 20–30% | tolerability (C57Bl/6 mice; mouse, in vivo, ip, 10 mg/kg): well tolerated
